Data as given in patent US20250352527A1, “METHODS FOR TREATING VIRAL INFECTIONS, ORGAN INJURY, AND RELATED CONDITIONS” (Akebia Therapeutics, Inc., priority 2021, published 2025).
“Also recorded” adds a separate entry of the source.

What was measured:
IL-6 = assay: Luminex cytokine levels in BAL: IL-6; settings: vs vehicle disease control
[1] = test system: hospitalized patients with coronavirus disease 2019 (COVID-19); assay: Randomized, double-blind, placebo-controlled clinical trial for prevention and treatment of ARDS; type: in vivo, human; settings: 900 mg once daily for 14 days
Description: This example describes use of 5-(3-chlorophenyl)-3-hydroxypyridine-2-carbonyl]amino}acetic acid (vadadustat) in a multicenter, randomized, double-blind, placebo-controlled Bayesian adaptive clinical for the prevention and treatment of acute respiratory distress syndrome (ARDS) in hospitalized patients with coronavirus disease 2019 (COVID-19).
Following screening, patients are randomized in a 1:1 ratio to either vadadustat 900 mg or placebo. Randomization is stratified by site, and MSOFA score at baseline (<4 and >4).
A subject may receive vadadustat (e.g., 900 mg vadadustat as 6 tablets once daily) for 14 days and without regard for meals at approximately the same time each day. Tablets can be crushed using a pill crusher and administered to an intubated patient through a nasogastric tube.
Efficacy may also be assessed according to any of the following (including any combination thereof): • 1. The proportion of patients at day 14 who are dead (8) or hospitalized, on invasive mechanical ventilation or ECMO (7) or hospitalized, on non-invasive ventilation or high flow oxygen devices (6) on the NIAID-OS. • 2. Proportions of patients with a score of 0 at 14 days on the MSOFA (Modified Sequential Organ Failure Assessment) scale:
• 3. Average MSOFA scores at day 7 and day 14. • 4. Proportion of patients who develop ARDS or experienced increased ARDS severity from baseline based on the Berlin scale. • 5. Ventilator-free survival at day 7 and day 14. • 6. Overall survival at day 7 and day 14. • 7. Proportion of patients with hypotension (MAP (Mean Arterial Pressure)<70 mm Hg or requirement for inotropes or vasopressors to maintain blood pressure) at day 7 and day 14. • 8. Proportion of patients with acute kidney injury at day 7 and day 14. • 9. Time to hospital discharge.

[2] = Body weight change from day -2 in LPS-induced lung inflammation model; type: in vivo, mice; settings: vs vehicle disease control; for body weight change from day -2: 6 hours post-LPS
Excerpt: (§1) All animals survived to study termination.
Body weight measurements were collected and the animals were euthanized for necropsy and terminal sample collection on day 0 or day 1.
The mice were weighed for randomization on study day −2 and were weighed again on day 0.

TNFα = assay: Luminex cytokine levels in BAL: TNFα; type: in vivo, mice; settings: vs vehicle disease control
Excerpt: as §1
• 1. […] Seal the plate with a plate sealer.

[3] = 100 mg/kg PO QD days -2 to 0 (final dose 1 h pre-LPS), 6 hours post-LPS
[4] = 100 mg/kg PO QD days -2 to 0 (final dose 7 h post-LPS), 24 hours post-LPS
[5] = 100 mg/kg PO single dose 1 h post-LPS, 8 hours post-LPS
[6] = 300 mg/kg PO single dose 1 h post-LPS, 8 hours post-LPS
[7] = day 7 and day 14, compared to placebo

## O=C(O)CNC(=O)c1ncc(-c2cccc(Cl)c2)cc1O [Compound 1, {[5-(3-chlorophenyl)-3-hydroxypyridine-2-carbonyl]amino}acetic acid]
IL-6; [3]
  IL-6 levels in BAL fluids: decrease in IL-6 levels at 6 hours post-LPS compared to vehicle disease control, though not statistically significant; also recorded: did not differ statistically
IL-6; [4]
  IL-6 levels in BAL fluids: Significantly increased; also recorded: significant increases
IL-6; [5]
  IL-6 levels in BAL fluids: decrease in IL-6 and TNFα levels at 8 hours post-LPS compared to vehicle disease control, though not statistically significant; also recorded: no significant differences
IL-6; 300 mg/kg PO QD days -2 to 0 (final dose 1 h pre-LPS), 6 hours post-LPS
  IL-6 levels in BAL fluids: decrease in IL-6 levels at 6 hours post-LPS compared to vehicle disease control, though not statistically significant
IL-6; [6]
  IL-6 levels in BAL fluids: decrease in IL-6 and TNFα levels at 8 hours post-LPS compared to vehicle disease control, though not statistically significant; also recorded: no significant differences
[1]; at 14 days, compared to placebo
  proportions of patients with a score of 0 on the MSOFA: an increase
[1]; compared to placebo
  proportion of patients who develop ARDS or experienced increased ARDS severity from baseline based on the Berlin scale: a lower or a reduction
[1]; [7]
  average MSOFA scores: a lower or a reduction
  overall survival: a greater or an increase
  proportion of patients with hypotension (MAP <70 mm Hg or requirement for inotropes or vasopressors): a lower or a reduction
  ventilator-free survival: a greater or an increase
[1]; day 7 and day 14, versus placebo
  proportion of patients with acute kidney injury: a lower or a reduction
[1]; day 14, compared to placebo
  proportion of patients who are dead (8), on invasive mechanical ventilation or ECMO (7) or on non-invasive ventilation or high flow oxygen devices (6) on the NIAID-OS: a lower or a reduction
[1]; versus placebo
  time to hospital discharge: a shorter or a reduction
[2]; 100 mg/kg PO QD days -2 to 0 (final dose 7 h post-LPS, 4 doses), 24 hours post-LPS
  absolute body weight change: did not differ statistically
[2]; [5]
  absolute body weight change: no significant differences
[2]; 300 mg/kg PO QD days -2 to 0 (final dose 1 h pre-LPS)
  body weight change from day -2: Significantly increased body weight loss; also recorded: statistically significant absolute weight loss
[2]; 300 mg/kg PO QD days -2 to 0 (final dose 7 h post-LPS, 4 doses), 24 hours post-LPS
  absolute body weight change: did not differ statistically
[2]; [6]
  absolute body weight change: no significant differences
TNFα; [3]
  TNFα levels in BAL fluids: did not differ statistically
TNFα; [4]
  TNFα levels in BAL fluids: Significantly increased; also recorded: significant increases
TNFα; [5]
  TNFα levels in BAL fluids: decrease in IL-6 and TNFα levels at 8 hours post-LPS compared to vehicle disease control, though not statistically significant; also recorded: no significant differences
TNFα; [6]
  TNFα levels in BAL fluids: decrease in IL-6 and TNFα levels at 8 hours post-LPS compared to vehicle disease control, though not statistically significant; also recorded: no significant differences

## C[C@@H]1C[C@H]2[C@@H]3CCC4=CC(=O)C=C[C@]4(C)[C@@]3(F)[C@@H](O)C[C@]2(C)[C@@]1(O)C(=O)CO [dexamethasone, reference compound]
[2]; 3 mg/kg PO 1x 1 h pre-LPS
  body weight change from day -2: did not differ statistically
